The values that follow come from patent US6887896B1, “7-[(7-Alkoxy)-chrom-3-en-6-yl]-heptatrienoic acid and 7-[(3-alkoxy)-5,6-dihydronaphthalen-2-yl]-heptatrienoic acid derivatives having serum glucose reducing activity” (Allergan, Inc., priority 2003, dated 2005).

Some results are limits rather than exact numbers.

The target of one assay is T1, RXRβ (UniProt P28704).
T1 sequence (P28704 1-520): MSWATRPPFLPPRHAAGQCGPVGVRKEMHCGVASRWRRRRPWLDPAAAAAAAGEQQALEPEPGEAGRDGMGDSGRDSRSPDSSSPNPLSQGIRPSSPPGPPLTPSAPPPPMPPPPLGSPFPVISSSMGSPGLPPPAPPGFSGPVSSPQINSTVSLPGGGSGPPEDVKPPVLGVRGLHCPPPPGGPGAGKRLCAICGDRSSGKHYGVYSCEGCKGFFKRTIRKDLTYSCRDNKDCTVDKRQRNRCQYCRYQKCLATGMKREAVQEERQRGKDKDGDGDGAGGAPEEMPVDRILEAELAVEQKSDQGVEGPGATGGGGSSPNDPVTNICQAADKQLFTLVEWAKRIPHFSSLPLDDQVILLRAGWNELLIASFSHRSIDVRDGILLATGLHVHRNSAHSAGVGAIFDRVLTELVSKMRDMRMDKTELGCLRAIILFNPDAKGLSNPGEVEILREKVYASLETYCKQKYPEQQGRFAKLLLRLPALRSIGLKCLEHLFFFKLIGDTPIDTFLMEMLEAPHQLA
Put plainly: ligand binding assay, RXRβ. Particulars: read-out: RXR Bind Ki β. The text has this:
(§1) Specifically, one such assay is a chimeric receptor transactivation assay which tests for agonist-like activity in the R RAPE and RAR7 receptor subtypes, and which is based on work published by Feigner, P. L. and Holm, M (1989) Focus, 112 is described in detail in U.S. Pat. No. 5,455,265. The specification of U.S. Pat. No. 5,455,265 is hereby expressly incorporated by reference. A holoreceptor transactivation assay and a ligand binding assay which measure the antagonist/agonist like activity of the compounds of the invention, or their ability to bind to the several retinoid receptor subtypes, respectively, are described in published PCT Application No. WO WO93/11755 (particularly on pages 30-33 and 37-41) published on Jun. 24, 1993, the specification of which is also incorporated herein by reference. A detailed experimental procedure for holoreceptor transactivations has been described by Heyman et al. Cell 68, 397-406, (1992); Allegretto et al. J. Biol. Chem. 268, 26625-26633, and Mangelsdorf et al. The Retinoids: Biology, Chemistry and Medicine, pp 319-349, Raven Press Ltd., New York, which are expressly incorporated herein by reference. The results obtained in this assay are expressed in EC50 numbers, as they are also in the chimeric receptor transactivation assay. The results of the ligand binding assay are expressed in Ki numbers. (See Cheng et al. Biochemical Pharmacology Vol. 22 pp 3099-3108, expressly incorporated herein by reference.)
(§2) Generally speaking, in the tables disclosing the results of transactivation and binding assays the numbers in parentheses indicate efficacy as a percentage compared to the standard compound, (2E,4E,1′S,2′S)-3-methyl-5-[2′-methyl-2′-(5,5,8,8-tetramethyl-5,6,7,8-tetrahydro-naphthalen-2-yl)cyclopropyl]-penta-2,4-dienoic acid and the other numbers indicate the measured EC50 and K; in nanomolar concentration.

In a further assay the target is T2, RARα (Homo sapiens, UniProt P10276).
T2 sequence (P10276 1-462): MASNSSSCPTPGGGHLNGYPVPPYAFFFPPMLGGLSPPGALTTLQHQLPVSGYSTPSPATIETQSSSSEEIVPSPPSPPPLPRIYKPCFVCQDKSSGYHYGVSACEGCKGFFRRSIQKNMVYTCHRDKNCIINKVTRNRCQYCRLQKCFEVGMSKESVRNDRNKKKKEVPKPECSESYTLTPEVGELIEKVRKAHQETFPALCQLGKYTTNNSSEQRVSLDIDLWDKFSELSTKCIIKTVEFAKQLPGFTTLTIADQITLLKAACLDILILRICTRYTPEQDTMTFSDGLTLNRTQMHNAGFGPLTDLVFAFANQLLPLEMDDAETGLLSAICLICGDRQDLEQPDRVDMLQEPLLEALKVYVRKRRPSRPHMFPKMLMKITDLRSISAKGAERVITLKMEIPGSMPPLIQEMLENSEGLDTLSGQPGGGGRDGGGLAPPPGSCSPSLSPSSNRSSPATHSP
Put plainly: ligand binding assay, RARα. Particulars: read-out: RAR Bind. Ki α.
Excerpt: as §1, §2

Another assay deals with T3, RXRα (Homo sapiens, UniProt P19793).
T3 construct: expressed in transfected cells
T3 sequence (P19793 1-462): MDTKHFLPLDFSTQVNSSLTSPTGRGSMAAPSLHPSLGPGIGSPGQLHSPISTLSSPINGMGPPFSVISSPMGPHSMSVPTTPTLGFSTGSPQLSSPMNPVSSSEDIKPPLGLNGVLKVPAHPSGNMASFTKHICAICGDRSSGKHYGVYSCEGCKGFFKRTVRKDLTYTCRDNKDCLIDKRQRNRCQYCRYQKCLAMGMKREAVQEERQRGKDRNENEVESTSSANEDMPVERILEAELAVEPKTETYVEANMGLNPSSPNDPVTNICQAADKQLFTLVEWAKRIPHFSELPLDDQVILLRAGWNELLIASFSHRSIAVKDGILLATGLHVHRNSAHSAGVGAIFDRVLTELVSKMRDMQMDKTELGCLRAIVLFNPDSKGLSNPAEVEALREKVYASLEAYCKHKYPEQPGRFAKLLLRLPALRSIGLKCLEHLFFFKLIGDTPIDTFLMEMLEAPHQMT
Put plainly: holoreceptor transactivation assay, RXRα. Type of assay: cell-based. Particulars: for EC50: holoreceptor transactivation, read-out: RXR Trans. EC50 α; for Emax: percentage compared to the standard compound, read-out: RXR Trans. efficacy (number in parentheses) α.
Excerpt: as §1
(§3) Efficacy in a transactivation assay is expressed as a percentage of the maximum potency attained by the compound compared to a standard which, in this case, is the compound named (2E,4E,1′S,2′S)-3-methyl-5-[2′-methyl-2′-(5,5,8,8-tetramethyl-5,6,7,8-tetrahydro-naphthalen-2-yl)-cyclopropyl]-penta-2,4-dienoic acid. This standard compound is described in U.S. Pat. No. 6,114,533.
(§4) The specification of this application for patent is organized in several sections in accordance with structural Formulas A through F each of which discloses a group of preferred compounds within the scope of the invention. Tables that disclose the activity of certain exemplary compounds of the invention in the above-described RXR receptor transactivation and binding assays are found in the corresponding sections. […] The transactivation data pertaining to the activation of RXR receptors were obtained in the holoreceptor assay.
as §2

Another assay concerns the target T4, RARβ (Homo sapiens, UniProt P10826).
T4 sequence (P10826 183-417 limits assumed): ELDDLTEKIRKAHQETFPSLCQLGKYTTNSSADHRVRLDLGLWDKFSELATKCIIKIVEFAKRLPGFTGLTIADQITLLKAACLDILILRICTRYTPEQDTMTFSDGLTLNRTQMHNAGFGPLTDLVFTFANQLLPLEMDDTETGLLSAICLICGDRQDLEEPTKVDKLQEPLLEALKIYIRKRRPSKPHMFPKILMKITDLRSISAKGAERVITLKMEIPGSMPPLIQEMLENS
Put plainly: chimeric receptor transactivation assay, RARβ. Type of assay: cell-based. Conditions: for EC50: chimeric receptor transactivation, read-out: RAR Trans. EC50 β; for Emax: percentage compared to the standard compound, read-out: RAR Trans. efficacy (number in parentheses) β.
Excerpt: as §1, §3, §4, §2

In general, Ki refers to the equilibrium dissociation constant of an inhibitor or competing ligand from its target. The term EC50 denotes the concentration that produces a half-maximal response. As to `CC/C(=C(F)/C=C/C(C)=C/C(=O)O)c1cc2c(cc1OC)OC(C)(C)C=C2C(C)C` [Compound 130, 6-Fluoro-7-(4-isopropyl-7-methoxy-2,2-dimethyl-2H-chromen-6-yl)-3-methyl-nona-2E,4E,6E-trienoic acid], the Ki was 24 nM at RXRβ and 133 nM on RARα. In addition, the EC50 on RXRα was found to be 0.5 nM; at RARβ, 65 nM. Besides, the figures for the Emax on RXRα and on RARβ were 80% and 31%, respectively.
As to `COc1cc2c(cc1\C(C)=C(F)/C=C/C(C)=C/C(=O)O)C(C(C)C)=CC(C)(C)O2` [Compound 121, (2E,4E,6E)-6-Fluoro-7-(4-isopropyl-7-methoxy-2,2-dimethyl-2H-chromen-6-yl)-3-methyl-octa-2,4,6-trienoic acid], the Ki at RXRβ worked out at 33 nM; at RARα, 692 nM. The half-maximal effective concentration (EC50) turned out to be 5 nM on RXRα and 46600 nM at RARβ. For the same compound, on RXRα, the Emax turned out to be 59%.
Turning to `CCCOc1cc2c(cc1\C(C)=C(F)/C=C/C(C)=C/C(=O)O)C(C(C)C)=CCC2(C)C` [Compound A-80], the Ki was 56 nM on RXRβ and 841 nM at RARα. Moreover, the EC50 on RARβ is 80 nM. Moreover, the Emax at RARβ turned out to be 13%.
For `CCOc1cc2c(cc1\C(C)=C(F)/C=C/C(C)=C/C(=O)O)C=CCC2(C)C` [Compound A-76, (2E,4E,6E)-7-(3-Ethoxy-5,5-dimethyl-5,6-dihydro-naphthalen-2-yl)-6-fluoro-3-methyl-octa-2,4.6-trienoic acid], the results for the Ki on RXRβ and on RARα were 347 nM and 1600 nM, respectively. Also, the results for the EC50 at RXRα and at RARβ were 50 nM and more than 10000 nM, respectively. Further, on RXRα, the Emax was determined as 104%.
In the case of `CC/C(=C(F)/C=C/C(C)=C/C(=O)O)c1cc2c(c(Cl)c1OC)OC(C)(C)C=C2C(C)C` [Compound 171, 7-(8-Chloro-4-isopropyl-7-methoxy-2,2-dimethyl-2H-chromen-6-yl)-6-fluoro-3-methyl-nona-2E,4E,6E-trienoic acid], the Ki came out at 12 nM at RXRβ and 47 nM at RARα. Further, the 50% effective concentration (EC50) came to 0.02 nM at RXRα and 49 nM on RARβ. Besides, the Emax came out at 87% on RXRα and 13% at RARβ.
Regarding `CCOc1cc2c(cc1\C(=C/C=C/C(C)=C/C(=O)O)CC)C(C)=CC(C)(C)O2` [Compound 46, 7-(7-Ethoxy-2,2,4-trimethyl-2H-chromen-6-yl)-3-methyl-nona-2E,4E,6Z-trienoic acid], the Ki turned out to be 1700 nM on RXRβ and 623 nM on RARα. For the same compound, the EC50 was more than 1000 nM at RXRα and 305 nM on RARβ. Moreover, the Emax at RARβ was 6%.
Turning to `CC/C(=C/C=C/C(C)=C/C(=O)O)c1cc2c(cc1OC)OC(C)(C)C=C2C(C)C` [Compound 44, 7-(4-Isopropyl-7-methoxy-22-dimethyl-2H-chromen-6-yl)-3-methyl-nona-2E,4E,6Z-trienoic acid], the results for the Ki at RXRβ and at RARα were 38 nM and 215 nM, respectively. Moreover, the EC50 at RXRα was 0.3 nM; at RARβ, 75 nM. Moreover, the Emax on RXRα stood at 89%; on RARβ it was 25%.
`CCOc1cc2c(cc1\C(CC)=C(F)/C=C/C(C)=C/C(=O)O)C(C(C)(C)C)=CCC2(C)C` [Compound A-83, (2E,4E,6E)-7-(8-tert-Butyl-3-ethoxy-5,5-dimethyl-5,6-dihydronaphthalen-2-yl)-6-fluoro-3-methyl-nona-2,4,6-trienoic acid]: the Ki was determined as 12 nM at RXRβ and 394 nM at RARα. In addition, the concentration giving a half-maximal response (EC50) at RXRα turned out to be 2 nM; on RARβ, 31 nM. Moreover, the Emax is 13% on RXRα and 12% at RARβ.
Consider `CCCOc1cc2c(cc1\C(C)=C(F)/C=C/C(C)=C/C(=O)O)C(C(C)(C)C)=CCC2(C)C` [Compound A-84, (2E,4E,6E)-6-Fluoro-3-(4,$dimethyl-6-n-propoxy-1-tert-butyl-3,4-dihydronaphthalen-7-yl)-3-methyl-2,4,6-octatrienoic acid], for which, on RXRβ, the Ki was 101 nM. Further, the Ki on RARα worked out at 1100 nM. Moreover, at RARβ, the EC50 was 56 nM and the Emax worked out at 8%.
As to `CCOc1cc2c(cc1\C(C)=C(F)/C=C/C(C)=C/C(=O)O)C(c1ccccc1)=CC(C)(C)O2` [Compound 127, (2E,4E,6E)-7-(7-Ethoxy-2,2-dimethyl-4-phenyl-2H-chromen-6-yl)-6-fluoro-3-methyl-octa-2,4,6-trienoic acid], the figures for the inhibition constant (Ki) at RXRβ and on RARα were 554 nM and 3700 nM, respectively. Further, the EC50 at RARβ is 227 nM. Further, the Emax on RARβ worked out at 17%.
Consider `CCCOc1cc2c(cc1\C(C)=C(F)/C=C/C(C)=C/C(=O)O)C(c1ccccc1)=CC(C)(C)O2` [Compound 128, (2E,4E,6E)-7-(2,2-Dimethyl-4-phenyl-7-propoxy-2H-chromen-6-yl)-6-fluoro-3-methyl-octa-2,4,6-trienoic acid], for which, on RXRβ, the Ki turned out to be 289 nM. Further, the Ki on RARα is 302 nM. Further, at RARβ, the EC50 came to 90 nM and the Emax amounted to 22%.
`CC(/C=C/C(F)=C(/C)c1cc2c(cc1OCC1CC1)C(C)(C)CC=C2C(C)C)=C\C(=O)O` [Compound A-81, (2E,4E,6E)-6-Fluoro-3-(4-dimethyl-6-(cyclopropyl)methoxy-1-isopropyl-3,4-dihydronaphthalen-7-yl)-3-methyl-2,4.6-octa-trienoic acid]: the Ki on RXRβ is 33 nM; on RARα, 592 nM. Besides, the EC50 at RARβ came to 203 nM. Further, at RARβ, the Emax amounted to 23%.
